Measurements from US20140243334A1, “SUBSTITUTED HYDOXAMIC ACIDS AND USES THEREOF” (Millennium Pharmaceuticals, Inc., priority 2010, published 2014).

Target: T1, purified human HDAC6 (Homo sapiens, UniProt Q9UBN7)
T1 construct: purchased BPS Bioscience 5006
T1 sequence (Q9UBN7 1-1215): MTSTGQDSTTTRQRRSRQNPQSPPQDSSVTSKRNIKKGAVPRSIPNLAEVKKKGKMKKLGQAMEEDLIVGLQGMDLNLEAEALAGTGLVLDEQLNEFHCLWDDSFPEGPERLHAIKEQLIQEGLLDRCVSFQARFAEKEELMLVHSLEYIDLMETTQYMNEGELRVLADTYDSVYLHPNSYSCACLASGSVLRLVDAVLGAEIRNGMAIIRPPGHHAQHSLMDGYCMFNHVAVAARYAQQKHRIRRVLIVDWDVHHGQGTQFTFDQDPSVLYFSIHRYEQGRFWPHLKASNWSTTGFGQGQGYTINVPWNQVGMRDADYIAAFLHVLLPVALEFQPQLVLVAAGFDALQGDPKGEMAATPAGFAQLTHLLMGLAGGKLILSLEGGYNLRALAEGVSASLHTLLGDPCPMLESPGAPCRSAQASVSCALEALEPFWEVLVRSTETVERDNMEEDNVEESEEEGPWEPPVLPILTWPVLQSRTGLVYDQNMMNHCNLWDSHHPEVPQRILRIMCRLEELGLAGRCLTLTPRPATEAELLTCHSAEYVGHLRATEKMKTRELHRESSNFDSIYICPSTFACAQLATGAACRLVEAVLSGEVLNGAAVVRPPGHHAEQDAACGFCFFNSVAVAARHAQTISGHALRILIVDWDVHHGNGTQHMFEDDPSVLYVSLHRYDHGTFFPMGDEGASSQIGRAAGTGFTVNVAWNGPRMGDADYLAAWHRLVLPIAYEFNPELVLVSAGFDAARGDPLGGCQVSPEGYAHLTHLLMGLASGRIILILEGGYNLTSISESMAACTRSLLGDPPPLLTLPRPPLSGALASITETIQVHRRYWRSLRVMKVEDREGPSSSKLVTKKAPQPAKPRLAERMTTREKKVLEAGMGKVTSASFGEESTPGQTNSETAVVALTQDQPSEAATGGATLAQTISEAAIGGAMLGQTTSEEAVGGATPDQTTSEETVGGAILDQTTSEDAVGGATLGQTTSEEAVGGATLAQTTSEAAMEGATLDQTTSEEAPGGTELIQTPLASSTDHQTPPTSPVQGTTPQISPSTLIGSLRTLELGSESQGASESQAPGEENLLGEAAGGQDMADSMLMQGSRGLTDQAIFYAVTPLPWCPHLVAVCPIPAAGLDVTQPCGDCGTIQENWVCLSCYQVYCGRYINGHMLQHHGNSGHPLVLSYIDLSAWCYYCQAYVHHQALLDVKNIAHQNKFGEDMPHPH
Test: HDAC6 Enzyme Assay
Assay type: biochemical
Settings: HDAC6 inhibition at a compound concentration of 0.412 μM; read-out: Percent Inhibition at 0.412 μM
Protocol: To measure the inhibition of HDAC6 activity, purified human HDAC6 (BPS Bioscience; Cat. No. 5006) is incubated with substrate Ac-Arg-Gly-Lys(Ac)-AMC peptide (Bachem Biosciences; Cat. No. I-1925) for 1 hour at 30° C. in the presence of test compounds or vehicle DMSO control. The reaction is stopped with the HDAC inhibitor trichostatin A (Sigma; Cat. No. T8552) and the amount of Arg-Gly-Lys-AMC generated is quantitated by digestion with trypsin (Sigma; Cat. No. T1426) and subsequent measurement of the amount of AMC released using a fluorescent plate reader (Pherastar; BMG Technologies) set at Ex 340 nm and Em 460 nm. Concentration response curves are generated by calculating the fluorescence increase in test compound-treated samples relative to DMSO-treated controls, and enzyme inhibition (IC50) values are determined from those curves.

| inhibition at 0.412 µM [%] | Compound |
| --- | --- |
| 66 | CC(C)Oc1ccc(-c2ccc3c(c2)CC(C(=O)NO)CC3)cc1 (centres unmarked) [Compound I-89, N-hydroxy-7-(4-isopropoxyphenyl)-1,2,3,4-tetrahydronaphthalene-2-carboxamide] |
| 79 | Cc1nnc(-c2cccc(-c3ccc4c(c3)CC(C(=O)NO)CC4)c2)o1 (centres unmarked) [Compound I-88, N-hydroxy-7-[3-(5-methyl-1,3,4-oxadiazol-2-yl)phenyl]-1,2,3,4-tetrahydronaphthalene-2-carboxamide] |
| 0 | COc1ccc2c(c1)CC(C)(C(=O)NO)CC2 (centres unmarked) [Compound I-76, N-hydroxy-7-methoxy-2-methyl-1,2,3,4-tetrahydronaphthalene-2-carboxamide] |
| 74 | O=C(NO)C1CCc2ccc(-c3ccc(S(=O)(=O)N4CCOCC4)cc3)cc2C1 (centres unmarked) [Compound I-117, N-hydroxy-7-[4-(morpholin-4-ylsulfonyl)phenyl]-1,2,3,4-tetrahydronaphthalene-2-carboxamide] |
| 55 | CC(C)(C#N)c1ccc(-c2ccc3c(c2)CC(C(=O)NO)CC3)cc1 (centres unmarked) [Compound I-120, 7-[4-(1-cyano-1-methylethyl)phenyl]-N-hydroxy-1,2,3,4-tetrahydronaphthalene-2-carboxamide] |
| 86 | CCOc1cccc(-c2ccc3c(c2)CC(C(=O)NO)CC3)c1 (centres unmarked) [Compound I-107, 7-(3-ethoxyphenyl)-N-hydroxy-1,2,3,4-tetrahydronaphthalene-2-carboxamide] |
| 34 | CC(C)Cc1ccc(-c2ccc3c(c2)CC(C(=O)NO)CC3)cc1 (centres unmarked) [Compound I-122, N-hydroxy-7-(4-isobutylphenyl)-1,2,3,4-tetrahydronaphthalene-2-carboxamide] |
| 77 | O=C(NO)C1CCc2ccc(-c3ccc4[nH]ccc4c3)cc2C1 (centres unmarked) [Compound I-75, N-hydroxy-7-(1H-indol-5-yl)-1,2,3,4-tetrahydronaphthalene-2-carboxamide] |
| 85 | O=C(NO)C1CCc2ccc(-c3ccc4c(c3)CCO4)cc2C1 (centres unmarked) [Compound I-90, 7-(2,3-dihydro-1-benzofuran-5-yl)-N-hydroxy-1,2,3,4-tetrahydronaphthalene-2-carboxamide] |
| 74 | Cc1ccc(C)c(-c2ccc3c(c2)CC(C(=O)NO)CC3)c1 (centres unmarked) [Compound I-111, 7-(2,5-dimethylphenyl)-N-hydroxy-1,2,3,4-tetrahydronaphthalene-2-carboxamide] |
| 58 | O=C(NO)C1CCc2ccc(-c3ccc(C(F)(F)F)cc3)cc2C1 (centres unmarked) [Compound I-112, N-hydroxy-7-[4-(trifluoromethyl)phenyl]-1,2,3,4-tetrahydronaphthalene-2-carboxamide] |
| 84 | CNC(=O)c1cc(F)cc(-c2ccc3c(c2)CC(C(=O)NO)CC3)c1 (centres unmarked) [Compound I-100, 7-{3-fluoro-5-[(methylamino)carbonyl]phenyl}-N-hydroxy-1,2,3,4-tetrahydronaphthalene-2-carboxamide] |
| 54 | O=C(NO)C1CCc2ccc(-c3ccc(OCc4ccccc4)cc3)cc2C1 (centres unmarked) [Compound I-121, 7-[4-(benzyloxy)phenyl]-N-hydroxy-1,2,3,4-tetrahydronaphthalene-2-carboxamide] |
| 83 | CN(C)C(=O)c1cc(-c2ccc3c(c2)CC(C(=O)NO)CC3)ccc1Cl (centres unmarked) [Compound I-115, 7-{4-chloro-3-[(dimethylamino)carbonyl]phenyl}-N-hydroxy-1,2,3,4-tetrahydronaphthalene-2-carboxamide] |
| 74 | O=C(NO)C1CCc2ccc(-c3ccc(Cl)cc3)cc2C1 (centres unmarked) [Compound I-71, 7-(4-chlorophenyl)-N-hydroxy-1,2,3,4-tetrahydronaphthalene-2-carboxamide] |

Continued, compound first:

| Compound | inhibition at 0.412 µM [%] |
| --- | --- |
| O=C(NO)C1CCc2ccc(Oc3ccc(Cl)cc3)cc2C1 (centres unmarked) [Compound I-11, 7-(4-chlorophenoxy)-N-hydroxy-1,2,3,4-tetrahydronaphthalene-2-carboxamide] | 62 |
| CC(C)c1cccc(Oc2ccc3c(c2)CC(C(=O)NO)CC3)c1 (centres unmarked) [Compound I-47, N-hydroxy-7-(3-isopropylphenoxy)-1,2,3,4-tetrahydronaphthalene-2-carboxamide] | 74 |
| O=C(NO)C1CCc2ccc(NC(=O)C3CC3)cc2C1 (centres unmarked) [Compound I-22, 7-[(cyclopropylcarbonyl)amino]-N-hydroxy-1,2,3,4-tetrahydronaphthalene-2-carboxamide] | 72 |
| O=C1CCc2c(Oc3cc4c(cc3F)CCC(C(=O)NO)C4)ccnc2N1 (centres unmarked) [Compound I-31, 6-fluoro-N-hydroxy-7-[(7-oxo-5,6,7,8-tetrahydro-1,8-naphthyridin-4-yl)oxy]-1,2,3,4-tetrahydronaphthalene-2-carboxamide] | 79 |
| O=C(NO)C1CCc2cccc(Oc3ccnc(NC(=O)C4CC4)c3)c2C1 (centres unmarked) [Compound I-16, 8-({2-[(cyclopropylcarbonyl)amino]pyridin-4-yl}oxy)-N-hydroxy-1,2,3,4-tetrahydronaphthalene-2-carboxamide] | 13 |
| O=C(NO)C1CCc2ccc(Oc3cccc(Cl)c3)cc2C1 (centres unmarked) [Compound I-9, 7-(3-chlorophenoxy)-N-hydroxy-1,2,3,4-tetrahydronaphthalene-2-carboxamide] | 74 |
| N#Cc1ccc2c(c1)CC(C(=O)NO)CC2 (centres unmarked) [Compound I-42, 7-cyano-N-hydroxy-1,2,3,4-tetrahydronaphthalene-2-carboxamide] | 62 |
| CS(=O)(=O)Nc1cccc(Oc2ccc3c(c2)CC(C(=O)NO)CC3)c1 (centres unmarked) [Compound I-55, N-hydroxy-7-{3-[(methylsulfonyl)amino]phenoxy}-1,2,3,4-tetrahydronaphthalene-2-carboxamide] | 93 |
| O=C(NO)C1CCc2ccc(-c3ccccc3Cl)cc2C1 (centres unmarked) [Compound I-70, 7-(2-chlorophenyl)-N-hydroxy-1,2,3,4-tetrahydronaphthalene-2-carboxamide] | 78 |
| CN(C)c1ccc2c(c1)CC(C(=O)NO)CC2 (centres unmarked) [Compound I-40, 7-(dimethylamino)-N-hydroxy-1,2,3,4-tetrahydronaphthalene-2-carboxamide] | 46 |
| COc1ccc(C(=O)Nc2ccc3c(c2)CC(C(=O)NO)CC3)cc1 (centres unmarked) [Compound I-29, N-hydroxy-7-[(4-methoxybenzoyl)amino]-1,2,3,4-tetrahydronaphthalene-2-carboxamide] | 81 |
| O=C(NO)C1CCc2ccc(-c3cc4ccccc4s3)cc2C1 (centres unmarked) [Compound I-61, 7-(1-benzothien-2-yl)-N-hydroxy-1,2,3,4-tetrahydronaphthalene-2-carboxamide] | 73 |
| CC1(C(=O)Nc2ccc3c(c2)CC(C(=O)NO)CC3)CCNCC1 (centres unmarked) [Compound I-18, N-{7-[(hydroxyamino)carbonyl]-5,6,7,8-tetrahydronaphthalen-2-yl}-4-methylpiperidine-4-carboxamide] | 54 |
| COc1ccccc1-c1ccc2c(c1)CC(C(=O)NO)CC2 (centres unmarked) [Compound I-68, N-hydroxy-7-(2-methoxyphenyl)-1,2,3,4-tetrahydronaphthalene-2-carboxamide] | 76 |
| O=C(NO)C1CCc2cc(Oc3ccccc3)ccc2C1 (centres unmarked) [Compound I-25, N-hydroxy-6-phenoxy-1,2,3,4-tetrahydronaphthalene-2-carboxamide] | 27 |
| CN(C)CCOc1cccc(Oc2ccc3c(c2)CC(C(=O)NO)CC3)c1 (centres unmarked) [Compound I-46, 7-{3-[2-(dimethylamino)ethoxy]phenoxy}-N-hydroxy-1,2,3,4-tetrahydronaphthalene-2-carboxamide] | 78 |
| O=C(NO)C1CCc2cc(-c3ccncc3)ccc2C1 (centres unmarked) [Compound I-66, N-hydroxy-6-pyridin-4-yl-1,2,3,4-tetrahydronaphthalene-2-carboxamide] | 80 |
